Measurements taken from patent US9119848B2, “Morphinan derivatives for the treatment of drug overdose” (Alkermes Pharma Ireland Limited, priority 2009, dated 2015).

Tests used:
[1] = Elimination of Compound-1 in study subjects
[2] = system: opioid dependent, opioid experienced subject; experiment: Compound-1 after REMI challenge in an opioid dependent, opioid experienced subject; conditions: 10 mg on Day 2, one opioid dependent subject

NC(=O)c1ccc2c(c1O)[C@]13CCN(CC4CC4)[C@H](C2)[C@]1(O)CCC(=O)C3 [Compound-1]
fraction of Compound-1 eliminated ([1]; by 4 days post-dose): more than 99% | half-life ([1]; human, in vivo, 20 mg): 7 h | time to severe drug withdrawal post-dosing [2]: 2 min
